This assay deals with T1, DPAP1 (Plasmodium falciparum, UniProt Q8IIJ9).
T1 sequence (Q8IIJ9 370-599 limits assumed): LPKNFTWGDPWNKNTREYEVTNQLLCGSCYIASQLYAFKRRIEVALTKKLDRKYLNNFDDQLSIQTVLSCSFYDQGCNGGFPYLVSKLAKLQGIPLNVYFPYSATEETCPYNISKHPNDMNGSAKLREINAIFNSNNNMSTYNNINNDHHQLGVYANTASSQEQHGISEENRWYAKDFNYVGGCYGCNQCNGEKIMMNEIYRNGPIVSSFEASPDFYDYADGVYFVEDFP
T1 sequence (Q8IIJ9 28-209 limits assumed): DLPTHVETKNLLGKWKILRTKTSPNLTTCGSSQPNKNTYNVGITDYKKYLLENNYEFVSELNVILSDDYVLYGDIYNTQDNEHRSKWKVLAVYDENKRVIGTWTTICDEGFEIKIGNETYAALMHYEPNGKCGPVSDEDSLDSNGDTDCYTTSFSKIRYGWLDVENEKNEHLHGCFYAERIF
T1 sequence (Q8IIJ9 600-700 limits assumed): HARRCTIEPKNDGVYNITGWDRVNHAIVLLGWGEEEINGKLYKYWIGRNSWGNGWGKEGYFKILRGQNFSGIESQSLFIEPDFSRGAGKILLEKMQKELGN
Briefly: biochemical. To be noted: for DPAP Primary hit (Hit = 1): 10 μM HTS, 0 not defined; for inhibition at 10 µM: 10 μM compound, parasite lysates, (PR)2Rho, 30 min end-point, read-out: DPAP1 % Inhibition @ 10 uM. It is filed as biochemical.

Molecules are shown by their SMILES.

As to `COc1ccc(Br)cc1C1CC(=O)N2CN(Cc3ccco3)CSC2=C1C#N` (centres unmarked) [SMDC170125, COc1ccc(Br)cc1C2CC(=O)N3CN(Cc4occc4)CSC3=C2C#N], the “DPAP Primary hit (Hit = 1)” value is 1 and the inhibition (as a rule, the relative decrease from the control value, in per cent) at 10 µM was 61%.
For `CN1CSC2=C(C#N)C(c3cccc(OCc4ccccc4)c3)CC(=O)N2C1` (centres unmarked) [SMDC170126, CN1CSC2=C(C#N)C(CC(=O)N2C1)c3cccc(OCc4ccccc4)c3] the same measures were 1 and 71%.
Regarding `N#CC1=C2SCN(C3CCCCC3)CN2C(=O)CC1c1ccccc1F` (centres unmarked) [SMDC170132, Fc1ccccc1C2CC(=O)N3CN(CSC3=C2C#N)C4CCCCC4], the “DPAP Primary hit (Hit = 1)” value is given as 0 and the inhibition at 10 µM is 38%.
As to `COc1ccc(OC)c(C2CC(=O)N3CN(Cc4ccco4)CSC3=C2C#N)c1` (centres unmarked) [SMDC170133, COc1ccc(OC)c(c1)C2CC(=O)N3CN(Cc4occc4)CSC3=C2C#N], the “DPAP Primary hit (Hit = 1)” value is on record as 0 and the inhibition at 10 µM amounted to 7%.
As for `COc1cccc(C2CC(=O)N3CN(Cc4ccco4)CSC3=C2C#N)c1OC` (centres unmarked) [SMDC170134, COc1cccc(C2CC(=O)N3CN(Cc4occc4)CSC3=C2C#N)c1OC], the “DPAP Primary hit (Hit = 1)” value was 0 and the inhibition at 10 µM worked out at 19%.
As to `COc1ccc(Br)cc1C1CC(=O)N2CN(C3CCCCC3)CSC2=C1C#N` (centres unmarked) [SMDC170135, COc1ccc(Br)cc1C2CC(=O)N3CN(CSC3=C2C#N)C4CCCCC4], the “DPAP Primary hit (Hit = 1)” value was 1 and the inhibition at 10 µM came to 60%.
For the compound `CCOc1ccc(C2CC(=O)N3CN(Cc4ccco4)CSC3=C2C#N)cc1` (centres unmarked) [SMDC170142, CCOc1ccc(cc1)C2CC(=O)N3CN(Cc4occc4)CSC3=C2C#N], the “DPAP Primary hit (Hit = 1)” value was 0 and the inhibition at 10 µM was determined as 43%.
Take `COc1ccc(OC)c(C2CC(=O)N3CN(C4CCCCC4)CSC3=C2C#N)c1` (centres unmarked) [SMDC170143, COc1ccc(OC)c(c1)C2CC(=O)N3CN(CSC3=C2C#N)C4CCCCC4]: the “DPAP Primary hit (Hit = 1)” value was determined as 0 and the inhibition at 10 µM was found to be 10%.
Regarding `COc1cccc(C2CC(=O)N3CN(C4CCCCC4)CSC3=C2C#N)c1OC` (centres unmarked) [SMDC170144, COc1cccc(C2CC(=O)N3CN(CSC3=C2C#N)C4CCCCC4)c1OC], the “DPAP Primary hit (Hit = 1)” value was determined as 0 and the inhibition at 10 µM worked out at 22%.
For the compound `COc1ccc(Br)cc1C1CC(=O)N2CN(C)CSC2=C1C#N` (centres unmarked) [SMDC170145, COc1ccc(Br)cc1C2CC(=O)N3CN(C)CSC3=C2C#N], the “DPAP Primary hit (Hit = 1)” value is on record as 1 and the inhibition at 10 µM worked out at 59%.
With `COc1cc(C2CC(=O)N3CN(Cc4ccccc4)CSC3=C2C#N)cc(Br)c1O` (centres unmarked) [SMDC170146, COc1cc(cc(Br)c1O)C2CC(=O)N3CN(Cc4ccccc4)CSC3=C2C#N], the “DPAP Primary hit (Hit = 1)” value is 1 and the inhibition at 10 µM came out at 57%.
For `CCOc1ccc(C2CC(=O)N3CN(C4CCCCC4)CSC3=C2C#N)cc1` (centres unmarked) [SMDC170152, CCOc1ccc(cc1)C2CC(=O)N3CN(CSC3=C2C#N)C4CCCCC4] the same measures were 0 and 47%.
Turning to `COc1cc(C2CC(=O)N3CN(Cc4ccco4)CSC3=C2C#N)ccc1O` (centres unmarked) [SMDC170153, COc1cc(ccc1O)C2CC(=O)N3CN(Cc4occc4)CSC3=C2C#N], the “DPAP Primary hit (Hit = 1)” value is on record as 0 and the inhibition at 10 µM came out at 18%.
On the same counts, the results for `COc1ccc(C2CC(=O)N3CN(Cc4ccccc4)CSC3=C2C#N)c(OC)c1` (centres unmarked) [SMDC170154, COc1ccc(C2CC(=O)N3CN(Cc4ccccc4)CSC3=C2C#N)c(OC)c1] are 0 and 32%.
Turning to `COc1ccc(Br)cc1C1CC(=O)N2CN(Cc3ccccc3)CSC2=C1C#N` (centres unmarked) [SMDC170155, COc1ccc(Br)cc1C2CC(=O)N3CN(Cc4ccccc4)CSC3=C2C#N], the “DPAP Primary hit (Hit = 1)” value was determined as 1 and the inhibition at 10 µM turned out to be 61%.
On to `CCOc1ccc(C2CC(=O)N3CN(Cc4ccccc4)CSC3=C2C#N)cc1` (centres unmarked) [SMDC170162, CCOc1ccc(cc1)C2CC(=O)N3CN(Cc4ccccc4)CSC3=C2C#N], for which the “DPAP Primary hit (Hit = 1)” value stood at 0 and the inhibition at 10 µM was 49%.

Values taken from article PMC6919601, “Identification of Plasmodium dipeptidyl aminopeptidase allosteric inhibitors by high throughput screening” (PLoS ONE, 2019).
